Patent US9492368B2, “External preparation for skin” (HAYASHIBARA CO., LTD., priority 2011, dated 2016)

Test: Solubility in deuterium water
Type: physicochemical
Experimental: For reference, the above nigerosyl adenosine was observed as a minor peak with a retention time of about 22 to 23 min between the elution peak of adenosine and that of 3′-glucosyladenosine other than the elution peaks of 5′- and 3′-glucosyladenosines and adenosine. When the fraction corresponding to such a minor peak was collected and subjected to mass spectrum (MS) analysis in usual manner, it was calculated to have a molecular weight of […] and judged to be a compound composed of two molecules of glucose bound to adenosine. Using the collected fraction and based on the chemical shift (see Table 13) of the carbons and protons of the fraction on MNR analysis under the following conditions, the substance contained in the fraction was identified as 5′-nigerosyladenosine (α-D-glucopyranosyl-(1→3)-α-D-glucopyranosyl-(1→5′)-adenosine; 5′-α-nigerosyladenosine). Since 5′-nigerosyladenosine dissolves in deuterium water in an amount of at least 6 w/v %, it has a higher solubility in aqueous media than 3′-glucosyladenosine. The carbon chemical shifts of adenosine and nigerose were obtained from the spectrum data base of organic compounds opened by The National Institute of Advanced Industrial Science and Technology (AIST) (SDBS; http://riodb01.ibase.aist.go.jp/sdbs/cgi-bin/direct_frame_top.cgi).

In the case of `Nc1ncnc2c1ncn2[C@@H]1O[C@H](CO[C@H]2O[C@H](CO)[C@@H](O)[C@H](O[C@H]3O[C@H](CO)[C@@H](O)[C@H](O)[C@H]3O)[C@H]2O)[C@@H](O)[C@H]1O` [5′-nigerosyladenosine, α-D-glucopyranosyl-(1→3)-α-D-glucopyranosyl-(1→5′)-adenosine], the “Amount that dissolves in deuterium water” value was “at least 6 w/v %”.
